19 molecules from patent publication US20120225062A1 (priority 2011, published 2012) can be followed below.

Test [1] deals with Pim 2 (Homo sapiens, UniProt Q9P1W9). The test is described as follows: Pim 2 AlphaScreen assay (high ATP). In general terms: In Alpha technology, singlet oxygen from a donor bead excites a nearby acceptor bead.
Test [2] has as its target Pim 1 (Homo sapiens, UniProt P11309). Briefly: Pim 1 AlphaScreen assay (high ATP).
Test [3] deals with KMS11 (human myeloma cell line). The test is described as follows: Cell Proliferation Assay (CellTiter-Glo, 3 days). The class given is cell-based. Particulars: KMS-11, 72 h, KMS11-luc cells. In short, it runs like this:
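EC50 from CellTiter-Glo luminescence after 3-day, 37° C compound treatment of KMS11 cells seeded at 2000 per well in IMDM plus 10% FBS.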
(Cellular ATP, detected with luciferase, serves as a proxy for viable cell number.)

Test [4] concerns the target Pim 3 (Homo sapiens, UniProt Q86V86). Briefly: Pim 3 AlphaScreen assay (high ATP).
Experimental: The activity of Pim 1, Pim 2, & Pim 3 is measured using a homogeneous bead based system quantifying the amount of phosphorylated peptide substrate resulting from kinase-catalyzed phosphoryl transfer to a peptide substrate. Compounds to be tested are dissolved in 100% DMSO and directly distributed to a white 384-well plate at 0.25 μl per well. […] This is followed by the addition of 5 μl/well of Pim 1, Pim 2 or Pim 3 kinase in assay buffer (concentrations described below). Final assay concentrations (described below) are in 2.5% DMSO. The reactions are performed for ˜2 hours, then stopped by the addition of 10 μl of 0.75 μg/ml anti-phospho Ser/Thr antibody (Cell Signaling), 10 μg/ml Protein A AlphaScreen beads (Perkin Elmer), and 10 μg/ml streptavidin coated AlphaScreen beads in stop/detection buffer (50 mM EDTA, 95 mM Tris, pH=7.5, 0.01% Tween-20). The stopped reactions are incubated overnight in the dark. The phosphorylated peptide is detected via an oxygen anion initiated chemiluminescence/fluorescence cascade using the Envision plate reader (Perkin Elmer).

Chain of Pim 2 (Q9P1W9 whole entry): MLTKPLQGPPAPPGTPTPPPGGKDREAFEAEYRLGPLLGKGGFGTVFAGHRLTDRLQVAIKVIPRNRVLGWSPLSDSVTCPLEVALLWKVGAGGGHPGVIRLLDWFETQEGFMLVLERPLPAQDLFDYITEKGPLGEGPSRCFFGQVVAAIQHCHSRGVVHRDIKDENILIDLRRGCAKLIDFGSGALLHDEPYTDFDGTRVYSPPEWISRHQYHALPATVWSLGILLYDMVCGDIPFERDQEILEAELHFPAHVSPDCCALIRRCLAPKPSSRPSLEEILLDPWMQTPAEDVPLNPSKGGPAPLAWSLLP
Chain of Pim 1 (P11309 whole entry): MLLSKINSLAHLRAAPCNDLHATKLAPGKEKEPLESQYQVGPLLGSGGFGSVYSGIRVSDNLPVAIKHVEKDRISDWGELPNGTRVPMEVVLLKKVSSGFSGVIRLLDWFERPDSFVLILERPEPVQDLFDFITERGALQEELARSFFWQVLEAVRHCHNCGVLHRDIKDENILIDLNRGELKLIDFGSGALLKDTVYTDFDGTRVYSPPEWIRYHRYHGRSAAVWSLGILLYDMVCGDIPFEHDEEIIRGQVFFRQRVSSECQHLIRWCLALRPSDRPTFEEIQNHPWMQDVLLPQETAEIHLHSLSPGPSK

In general, IC50 refers to the concentration at which inhibition is half-maximal. Low readings indicate greater potency, high ones weaker potency. Broadly, the EC50 is the concentration at which the effect is half-maximal. Higher therefore signals a less potent agent. As to `C[C@@H]1C[C@H](N)C[C@H](c2ccncc2NC(=O)c2ccc(F)c(-c3c(F)cc(C4(F)COC4)cc3F)n2)C1` [Example 135, N-(4-((1R,3S,5S)-3-amino-5-methylcyclohexyl)pyridin-3-yl)-6-(2,6-difluoro-4-(3-fluorooxetan-3-yl)phenyl)-5-fluoropicolinamide], the IC50 in test [1] was determined as 4.54 nM; in test [2], 0.05 nM; in test [4] it was 4.45 nM. In test [3], this molecule showed a concentration for a half-maximal effect (EC50) of 583 nM.

With `C[C@H]1C[C@@H](c2ccncc2NC(=O)c2ccc(F)c(-c3c(F)cc(C4(F)COC4)cc3F)n2)C[C@@H](N)[C@@H]1O` [Example 136, N-(4-((1R,3R,4R,5S)-3-amino-4-hydroxy-5-methylcyclohexyl)pyridin-3-yl)-6-(2,6-difluoro-4-(3-fluorooxetan-3-yl)phenyl)-5-fluoropicolinamide], the results for the concentration for half-maximal inhibition (IC50) in test [1], in test [2] and in test [4] were 5.59 nM, 0.08 nM and 4.8 nM, respectively. In test [3], the EC50 was 225 nM.

With `C[C@H]1C[C@@H](c2ccncc2NC(=O)c2ccc(F)c(-c3c(F)cc(C4(F)COC4)cc3F)n2)C[C@@H](N)[C@H]1O` [Example 137, N-(4-((1R,3R,4S,5S)-3-amino-4-hydroxy-5-methylcyclohexyl)pyridin-3-yl)-6-(2,6-difluoro-4-(3-fluorooxetan-3-yl)phenyl)-5-fluoropicolinamide], the IC50 was 10.3 nM in test [1], 0.08 nM in test [2] and 6.9 nM in test [4]. The molecule further displayed an EC50 in test [3] of 549 nM.

On to `C[C@H]1C[C@@H](c2ccncc2NC(=O)c2ccc(F)c(-c3c(F)cc(COC4CCOCC4)cc3F)n2)C[C@@H](N)[C@@H]1O` [Example 138, N-(4-((1R,3R,4R,5S)-3-amino-4-hydroxy-5-methylcyclohexyl)pyridin-3-yl)-6-(2,6-difluoro-4-((tetrahydro-2H-pyran-4-yloxy)methyl)phenyl)-5-fluoropicolinamide], for which the figures for the IC50 in test [1], in test [2] and in test [4] were 3.3 nM, 0.08 nM and 2.39 nM, respectively. Moreover, in test [3], the EC50 amounted to 324 nM.

As for `CC(C)[C@@H]1C[C@H](N)C[C@H](c2ccncc2NC(=O)c2ccc(F)c(-c3c(F)cc(C4CCOCC4)cc3F)n2)C1` [Example 139, N-(4-((1R,3S,5S)-3-amino-5-isopropylcyclohexyl)pyridin-3-yl)-6-(2,6-difluoro-4-(tetrahydro-2H-pyran-4-yl)phenyl)-5-fluoropicolinamide], the IC50 was 0.63 nM in test [1], 0.01 nM in test [2] and 0.36 nM in test [4]. In addition, the EC50 in test [3] is 153 nM.

As for `C[C@H]1C[C@@H](c2ccncc2NC(=O)c2ccc(F)c(-c3c(F)cc(OC4CCOCC4)cc3F)n2)C[C@@H](N)[C@H]1O` [Example 140, N-(4-((1R,3R,4S,5S)-3-amino-4-hydroxy-5-methylcyclohexyl)pyridin-3-yl)-6-(2,6-difluoro-4-(tetrahydro-2H-pyran-4-yloxy)phenyl)-5-fluoropicolinamide], the figures for the IC50 in test [1], in test [2] and in test [4] were 6.05 nM, 0.04 nM and 1.71 nM, respectively. Moreover, in test [3], the EC50 is 863 nM.

`CCOCCOc1cc(F)c(-c2nc(C(=O)Nc3cnccc3[C@H]3C[C@@H](N)[C@H](O)[C@@H](C)C3)ccc2F)c(F)c1` [Example 141, N-(4-((1R,3R,4R,5S)-3-amino-4-hydroxy-5-methylcyclohexyl)pyridin-3-yl)-6-(4-(2-ethoxyethoxy)-2,6-difluorophenyl)-5-fluoropicolinamide]: the results for the IC50 in test [1], in test [2] and in test [4] were 37.4 nM, 0.45 nM and 16 nM, respectively. In test [3], the half-maximal effective concentration (EC50) is 2510 nM.

Take `C[C@@H]1C[C@H](N)C[C@H](c2ccncc2NC(=O)c2ccc(F)c(-c3c(F)cc(-c4ccnnc4)cc3F)n2)C1` [Example 142, N-(4-((1R,3S,5S)-3-amino-5-methylcyclohexyl)pyridin-3-yl)-6-(2,6-difluoro-4-(pyridazin-4-yl)phenyl)-5-fluoropicolinamide]: the results for the IC50 in test [1], in test [2] and in test [4] were 28.4 nM, 0.12 nM and 17.8 nM, respectively. In test [3], this molecule came in with an EC50 of 1640 nM.

Consider `C[C@@H]1C[C@H](N)C[C@H](c2ccncc2NC(=O)c2ccc(F)c(-c3c(F)cc(OCC(=O)N(C)C)cc3F)n2)C1` [Example 143, N-(4-((1R,3S,5S)-3-amino-5-methylcyclohexyl)pyridin-3-yl)-6-(4-(2-(dimethylamino)-2-oxoethoxy)-2,6-difluorophenyl)-5-fluoropicolinamide], for which the IC50 in test [1] is 9.42 nM; in test [2], 0.05 nM; in test [4] it was 0.77 nM. In test [3], this molecule came in with an EC50 of 197 nM.

`CCOC(C)(C)c1cc(F)c(-c2nc(C(=O)Nc3cnccc3[C@@H]3C[C@H](C)C[C@H](N)C3)ccc2F)c(F)c1` [Example 145, N-(4-((1R,3S,5S)-3-amino-5-methylcyclohexyl)pyridin-3-yl)-6-(4-(2-ethoxypropan-2-yl)-2,6-difluorophenyl)-5-fluoropicolinamide]: the IC50 in test [1] was 3.5 nM; in test [2] it was 0.03 nM; in test [4], 1.99 nM. In test [3], this molecule came in with an EC50 of 244 nM.

For the molecule `CCOC(C)(C)c1cc(F)c(-c2nc(C(=O)Nc3cnccc3[C@H]3C[C@@H](N)[C@H](O)[C@@H](C)C3)ccc2F)c(F)c1` [Example 146, N-(4-((1R,3R,4R,5S)-3-amino-4-hydroxy-5-methylcyclohexyl)pyridin-3-yl)-6-(4-(2-ethoxypropan-2-yl)-2,6-difluorophenyl)-5-fluoropicolinamide], the IC50 worked out at 5.58 nM in test [1], 0.09 nM in test [2] and 6.34 nM in test [4]. Moreover, the EC50 in test [3] turned out to be 526 nM.

Take `CC(C)OCc1cc(F)c(-c2nc(C(=O)Nc3cnccc3[C@@H]3C[C@H](C)C[C@H](N)C3)ccc2F)c(F)c1` [Example 147, N-(4-((1R,3S,5S)-3-amino-5-methylcyclohexyl)pyridin-3-yl)-6-(2,6-difluoro-4-(isopropoxymethyl)phenyl)-5-fluoropicolinamide]: the IC50 stood at 2.77 nM in test [1], 0.02 nM in test [2] and 1.03 nM in test [4]. The EC50 in test [3] came out at 146 nM.

As for `CC(C)OCc1cc(F)c(-c2nc(C(=O)Nc3cnccc3[C@H]3C[C@@H](N)[C@H](O)[C@@H](C)C3)ccc2F)c(F)c1` [Example 148, N-(4-((1R,3R,4R,5S)-3-amino-4-hydroxy-5-methylcyclohexyl)pyridin-3-yl)-6-(2,6-difluoro-4-(isopropoxymethyl)phenyl)-5-fluoropicolinamide], the half-inhibitory concentration (IC50) came to 3.28 nM in test [1], 0.05 nM in test [2] and 1.47 nM in test [4]. In test [3], this molecule showed an EC50 of 185 nM.

In the case of `C[C@@H]1C[C@H](N)C[C@H](c2ccncc2NC(=O)c2ccc(F)c(-c3c(F)cc(COC4CCOCC4)cc3F)n2)C1` [Example 149, N-(4-((1R,3S,5S)-3-amino-5-methylcyclohexyl)pyridin-3-yl)-6-(2,6-difluoro-4-((tetrahydro-2H-pyran-4-yloxy)methyl)phenyl)-5-fluoropicolinamide], the IC50 in test [1] worked out at 2.96 nM; in test [2], 0.03 nM; in test [4], 1.72 nM. The EC50 in test [3] was 148 nM.

`N[C@H]1CCC[C@@H](c2ccncc2NC(=O)c2ccc(F)c(-c3c(F)cc(COC4CCOCC4)cc3F)n2)C1` [Example 154, N-(4-((1R,3S)-3-aminocyclohexyl)pyridin-3-yl)-6-(2,6-difluoro-4-((tetrahydro-2H-pyran-4-yloxy)methyl)phenyl)-5-fluoropicolinamide]: the IC50 in test [1] was determined as 32 nM; in test [2], 0.1 nM; in test [4] it was 5.22 nM. For the same molecule, a half-maximal response in test [3] (EC50) required 492 nM.

On to `C[C@@H]1C[C@H](N)C[C@H](c2ccncc2NC(=O)c2ccc(F)c(-c3c(F)cc(C4(O)CCCC4)cc3F)n2)C1` [Example 163, N-(4-((1R,3S,5S)-3-amino-5-methylcyclohexyl)pyridin-3-yl)-6-(2,6-difluoro-4-(1-hydroxycyclopentyl)phenyl)-5-fluoropicolinamide], for which the IC50 amounted to 0.93 nM in test [1], 0.01 nM in test [2] and 0.17 nM in test [4]. In addition, in test [3], a half-maximal effect (EC50) was put at 33 nM.

On to `C[C@@H]1C[C@H](N)C[C@H](c2ccncc2NC(=O)c2ccc(F)c(-c3c(F)cc(C(C)(C)C#N)cc3F)n2)C1` [Example 164, N-(4-((1R,3S,5S)-3-amino-5-methylcyclohexyl)pyridin-3-yl)-6-(4-(2-cyanopropan-2-yl)-2,6-difluorophenyl)-5-fluoropicolinamide], for which the results for the IC50 in test [1], in test [2] and in test [4] were 2.13 nM, 0.02 nM and 2.04 nM, respectively. Further, the midpoint of the response in test [3], the EC50, lay at 88 nM.

On to `C[C@H]1C[C@@H](c2ccncc2NC(=O)c2ccc(F)c(-c3c(F)cc(C(C)(C)C#N)cc3F)n2)C[C@@H](N)[C@@H]1O` [Example 165, N-(4-((1R,3R,4R,5S)-3-amino-4-hydroxy-5-methylcyclohexyl)pyridin-3-yl)-6-(4-(2-cyanopropan-2-yl)-2,6-difluorophenyl)-5-fluoropicolinamide], for which the figures for the concentration for half-maximal inhibition (IC50) in test [1], in test [2] and in test [4] were 1.87 nM, 0.04 nM and 2.3 nM, respectively. Besides, the concentration for a half-maximal effect (EC50) in test [3] worked out at 78 nM.

Consider `C[C@@H]1C[C@H](N)C[C@H](c2ccncc2NC(=O)c2ccc(F)c(-c3c(F)cc(N4CCOCC4)cc3F)n2)C1` [Example 168, N-(4-((1R,3S,5S)-3-amino-5-methylcyclohexyl)pyridin-3-yl)-6-(2,6-difluoro-4-morpholinophenyl)-5-fluoropicolinamide], for which the figures for the IC50 in test [1], in test [2] and in test [4] were 1.36 nM, 0.02 nM and 0.95 nM, respectively. In test [3], the EC50 worked out at 52 nM.
